Measured values: ChEMBL document CHEMBL4706640, “Structure-Based Drug Design and Synthesis of PI3Kα-Selective Inhibitor (PF-06843195)” (J Med Chem, 2021)
In brackets after ≈: the same amount, converted by molar mass.

Tests used:
[1] = target: T1, Phosphatidylinositol 4,5-bisphosphate 3-kinase catalytic subunit delta isoform (Homo sapiens, UniProt O00329); assay: Inhibition of recombinant human N-terminal Myr signal and C-terminal Flag-tagged PI3K p110delta expressed in rat Rat1 cells; assay type: cell-based
T1 sequence (O00329 whole entry): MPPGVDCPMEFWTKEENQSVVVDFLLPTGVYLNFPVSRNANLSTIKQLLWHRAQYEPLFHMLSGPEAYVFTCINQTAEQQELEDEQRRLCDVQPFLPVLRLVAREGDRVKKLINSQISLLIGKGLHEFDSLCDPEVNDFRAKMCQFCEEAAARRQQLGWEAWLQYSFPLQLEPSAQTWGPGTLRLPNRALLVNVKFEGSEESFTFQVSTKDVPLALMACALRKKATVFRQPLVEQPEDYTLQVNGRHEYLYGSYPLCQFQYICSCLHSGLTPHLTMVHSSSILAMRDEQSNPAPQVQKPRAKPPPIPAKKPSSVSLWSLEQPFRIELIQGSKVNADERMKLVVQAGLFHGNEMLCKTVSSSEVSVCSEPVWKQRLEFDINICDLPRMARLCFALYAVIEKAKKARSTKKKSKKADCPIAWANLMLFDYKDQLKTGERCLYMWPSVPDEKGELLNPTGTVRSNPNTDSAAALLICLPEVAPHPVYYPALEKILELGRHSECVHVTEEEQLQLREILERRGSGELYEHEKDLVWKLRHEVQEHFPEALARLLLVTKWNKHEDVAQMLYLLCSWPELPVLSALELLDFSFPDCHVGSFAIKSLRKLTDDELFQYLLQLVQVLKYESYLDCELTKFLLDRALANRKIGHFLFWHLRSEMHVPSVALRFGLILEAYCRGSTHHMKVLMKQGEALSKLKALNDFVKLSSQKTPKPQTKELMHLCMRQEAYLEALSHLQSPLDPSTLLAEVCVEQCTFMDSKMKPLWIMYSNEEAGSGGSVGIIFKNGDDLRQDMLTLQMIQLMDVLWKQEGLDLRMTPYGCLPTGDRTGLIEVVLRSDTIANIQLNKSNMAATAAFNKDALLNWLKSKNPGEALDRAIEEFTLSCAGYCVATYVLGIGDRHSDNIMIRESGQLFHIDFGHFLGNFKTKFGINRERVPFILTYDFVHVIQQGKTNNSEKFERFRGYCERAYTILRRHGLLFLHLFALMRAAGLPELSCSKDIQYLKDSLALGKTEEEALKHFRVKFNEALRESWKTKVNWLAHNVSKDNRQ

[2] = target: Phosphatidylinositol 4,5-bisphosphate 3-kinase catalytic subunit beta isoform (Homo sapiens, UniProt P42338); assay: Inhibition of recombinant human N-terminal Myr signal and C-terminal Flag-tagged PI3K p110beta expressed in rat Rat1 cells; assay type: cell-based
[3] = target: Phosphatidylinositol 4,5-bisphosphate 3-kinase catalytic subunit alpha isoform (Homo sapiens, UniProt P42336); assay: Inhibition of recombinant human N-terminal Myr signal and C-terminal Flag-tagged PI3K p110alpha expressed in rat Rat1 cells; assay type: cell-based
[4] = target: PI3-kinase p110-alpha/p85-alpha (Homo sapiens, UniProt P42336); assay: Inhibition of recombinant human full-length PI3K p110alpha/p85alpha (322 to 600) expressed in baculovirus infected Sf21 cells using phosphatidylinositol 4,5-bisphosphate as substrate preincubated for 15 mins followed by addition of ATP and measured after 30 mins by fluorescence polarisation assay
[5] = target: PI3K p110 beta/p85 alpha (Homo sapiens, UniProt P42338); assay: Inhibition of recombinant human PI3K p110beta/p85alpha using phosphatidylinositol 4,5-bisphosphate as substrate preincubated for 15 mins followed by addition of ATP and measured after 30 mins by fluorescence polarisation assay; assay type: protein-complex assay
[6] = target: PI3-kinase p110-delta/p85-alpha (Homo sapiens, UniProt O00329); assay: Inhibition of recombinant human PI3K p110delta/p85alpha using phosphatidylinositol 4,5-bisphosphate as substrate preincubated for 15 mins followed by addition of ATP and measured after 30 mins by fluorescence polarisation assay; assay type: protein-complex assay
[7] = Distribution coefficient, logD of compound at pH 7.4; assay type: physicochemical; details: octanol/water
[8] = Apparent intrinsic clearance in human liver microsomes; assay type: ADME, Microsome; details: read-out: CLH(app)
[9] = Passive permeability of compound in RRCK cells; assay type: ADME, cell-based, Canis lupus familiaris, MDCKII-LE; details: dog, MDCK; read-out: permeability
[10] = Kinetic solubility of compound; assay type: physicochemical; details: read-out: Kinetic_solubility

Chain of Phosphatidylinositol 4,5-bisphosphate 3-kinase catalytic subunit beta isoform (P42338 whole entry, canonical isoform): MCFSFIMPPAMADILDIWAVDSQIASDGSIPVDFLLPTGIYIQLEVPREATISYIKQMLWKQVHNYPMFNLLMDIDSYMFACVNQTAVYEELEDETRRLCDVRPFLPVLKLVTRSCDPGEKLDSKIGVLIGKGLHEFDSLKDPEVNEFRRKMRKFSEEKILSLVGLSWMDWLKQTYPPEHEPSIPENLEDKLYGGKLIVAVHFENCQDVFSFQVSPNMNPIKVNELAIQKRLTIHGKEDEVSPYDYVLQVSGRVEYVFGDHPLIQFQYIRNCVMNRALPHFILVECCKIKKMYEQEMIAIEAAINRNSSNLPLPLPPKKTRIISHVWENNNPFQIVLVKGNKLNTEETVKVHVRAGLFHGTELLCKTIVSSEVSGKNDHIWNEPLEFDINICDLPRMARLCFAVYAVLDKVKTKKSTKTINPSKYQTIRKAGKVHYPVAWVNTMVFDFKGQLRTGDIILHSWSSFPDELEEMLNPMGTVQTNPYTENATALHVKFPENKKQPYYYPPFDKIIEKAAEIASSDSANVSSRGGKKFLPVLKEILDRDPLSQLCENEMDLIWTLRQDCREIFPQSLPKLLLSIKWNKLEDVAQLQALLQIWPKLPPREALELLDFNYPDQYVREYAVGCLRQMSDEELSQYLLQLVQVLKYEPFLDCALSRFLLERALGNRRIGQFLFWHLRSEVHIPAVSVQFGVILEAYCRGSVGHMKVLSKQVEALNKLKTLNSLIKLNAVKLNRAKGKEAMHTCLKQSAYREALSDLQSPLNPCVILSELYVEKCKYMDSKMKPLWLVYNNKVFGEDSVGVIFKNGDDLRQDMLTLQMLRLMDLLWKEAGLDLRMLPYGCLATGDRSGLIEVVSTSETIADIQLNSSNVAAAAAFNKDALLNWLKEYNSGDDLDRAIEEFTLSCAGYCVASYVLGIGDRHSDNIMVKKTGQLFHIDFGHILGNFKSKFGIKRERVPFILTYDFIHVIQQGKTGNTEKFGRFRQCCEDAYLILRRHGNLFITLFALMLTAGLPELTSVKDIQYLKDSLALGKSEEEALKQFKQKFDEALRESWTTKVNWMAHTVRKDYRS
Chain of PI3-kinase p110-delta/p85-alpha (P27986 whole entry, one chain of several): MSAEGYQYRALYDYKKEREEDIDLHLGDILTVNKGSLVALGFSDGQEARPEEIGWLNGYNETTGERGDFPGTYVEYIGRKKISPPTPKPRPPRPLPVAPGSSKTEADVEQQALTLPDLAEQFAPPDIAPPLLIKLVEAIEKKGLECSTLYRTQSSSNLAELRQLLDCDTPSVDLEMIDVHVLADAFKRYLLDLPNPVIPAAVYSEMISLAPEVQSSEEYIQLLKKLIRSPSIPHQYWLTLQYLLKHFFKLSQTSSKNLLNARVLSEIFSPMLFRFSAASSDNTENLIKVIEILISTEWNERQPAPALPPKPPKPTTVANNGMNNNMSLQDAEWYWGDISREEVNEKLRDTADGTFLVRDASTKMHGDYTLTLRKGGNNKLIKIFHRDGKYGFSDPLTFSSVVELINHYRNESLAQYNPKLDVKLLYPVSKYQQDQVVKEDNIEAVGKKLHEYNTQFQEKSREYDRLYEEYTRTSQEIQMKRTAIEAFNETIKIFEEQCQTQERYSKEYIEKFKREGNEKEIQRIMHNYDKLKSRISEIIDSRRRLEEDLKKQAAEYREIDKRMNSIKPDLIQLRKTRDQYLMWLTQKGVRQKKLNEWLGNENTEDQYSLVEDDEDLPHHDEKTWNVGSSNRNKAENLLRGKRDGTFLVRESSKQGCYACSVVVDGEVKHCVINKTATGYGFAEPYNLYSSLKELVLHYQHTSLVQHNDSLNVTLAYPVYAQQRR
Chain of PI3K p110 beta/p85 alpha (P27986 whole entry): as the sequence (P27986 whole entry, one chain of several) above
Chain of PI3K p110 beta/p85 alpha (P42338 whole entry): as the sequence (P42338 whole entry, canonical isoform) above
Chain of PI3-kinase p110-alpha/p85-alpha (P27986 whole entry): as the sequence (P27986 whole entry, one chain of several) above
Chain of PI3-kinase p110-alpha/p85-alpha (P42336 whole entry): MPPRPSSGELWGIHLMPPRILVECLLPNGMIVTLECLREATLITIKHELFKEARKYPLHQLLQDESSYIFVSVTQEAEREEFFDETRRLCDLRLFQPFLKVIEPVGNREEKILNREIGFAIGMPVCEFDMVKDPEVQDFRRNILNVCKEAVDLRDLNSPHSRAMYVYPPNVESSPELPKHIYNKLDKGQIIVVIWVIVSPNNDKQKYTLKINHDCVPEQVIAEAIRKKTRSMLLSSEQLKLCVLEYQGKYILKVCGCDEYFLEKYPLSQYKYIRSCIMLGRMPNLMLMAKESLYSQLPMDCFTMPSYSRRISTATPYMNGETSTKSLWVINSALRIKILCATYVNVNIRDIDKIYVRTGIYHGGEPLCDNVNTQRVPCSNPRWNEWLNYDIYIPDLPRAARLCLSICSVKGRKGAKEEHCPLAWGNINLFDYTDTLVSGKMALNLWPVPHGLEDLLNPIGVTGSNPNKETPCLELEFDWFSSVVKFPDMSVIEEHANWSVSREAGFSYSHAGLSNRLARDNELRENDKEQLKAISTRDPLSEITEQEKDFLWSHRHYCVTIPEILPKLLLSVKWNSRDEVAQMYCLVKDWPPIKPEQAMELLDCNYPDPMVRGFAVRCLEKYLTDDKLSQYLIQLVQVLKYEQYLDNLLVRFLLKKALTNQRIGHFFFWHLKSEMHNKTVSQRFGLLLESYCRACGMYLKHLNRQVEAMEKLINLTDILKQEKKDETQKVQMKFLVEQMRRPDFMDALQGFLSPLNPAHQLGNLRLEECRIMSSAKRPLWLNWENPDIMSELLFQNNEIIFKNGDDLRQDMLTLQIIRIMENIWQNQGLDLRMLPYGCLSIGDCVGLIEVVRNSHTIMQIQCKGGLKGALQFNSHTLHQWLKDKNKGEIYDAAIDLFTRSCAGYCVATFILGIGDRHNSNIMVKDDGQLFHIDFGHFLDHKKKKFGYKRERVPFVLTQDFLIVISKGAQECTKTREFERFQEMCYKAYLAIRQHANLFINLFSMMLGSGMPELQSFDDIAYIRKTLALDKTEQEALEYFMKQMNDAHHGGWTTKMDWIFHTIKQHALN
Chain of Phosphatidylinositol 4,5-bisphosphate 3-kinase catalytic subunit alpha isoform (P42336 whole entry, canonical isoform): as the sequence (P42336 whole entry) above

| Structure (SMILES) | IC50 [1] [nM] | IC50 [2] [nM] | IC50 [3] [nM] | Ki [4] [nM] | Ki [5] [nM] | Ki [6] [nM] | logD [7] | microsomal CLint [8] [µL/min/mg] | Papp [9] [×10⁻⁶ cm/s] | solubility kinetic [10] [µM] |
| --- | --- | --- | --- | --- | --- | --- | --- | --- | --- | --- |
| CC(C)(O)C(=O)N1CC[C@](C)(N2CCc3c(-c4cnc(N)nc4)nc(N4CCOCC4)nc32)C1 | 150 | 1000 | 53 | 0.03 | 46 | 6.7 | 2 | 16 | 25 | 460 (≈ 216 µg/mL) |
| Nc1ncc(-c2ccnc(N3CCOCC3)n2)cn1 |  |  |  |  | 15 | 81 | 1.5 |  | 28 | 210 (≈ 54.2 µg/mL) |
| C[C@]1(N2CCc3c(-c4cnc(N)nc4)nc(N4CCOCC4)nc32)CCN(S(C)(=O)=O)C1 | 76 | 150 | 34 | < 0.029 | 9.1 | 0.26 | 1.6 | 36 | 26 | 540 (≈ 249 µg/mL) |
| CC(C)C(=O)N1CC[C@](CO)(Nc2cc(-c3cnc(N)nc3)nc(N3CCOCC3)n2)C1 | > 10000 | > 10000 |  |  | 19 | < 0.28 | 1.4 | 17 | 0.19 | 540 (≈ 239 µg/mL) |
| CC(C)(C)OC(=O)N1CC[C@](CO)(Nc2cc(-c3cnc(N)nc3)nc(N3CCOCC3)n2)C1 | 1200 | 4600 |  |  | 54 | 2.1 | 2.7 | 140 | 18 | 460 (≈ 217 µg/mL) |
| Nc1ncc(-c2nc(N3CCOCC3)nc3c2CCN3[C@H]2CCNC2)cn1 |  |  |  | 2.1 | 17 | 40 | -0.74 | 13 | 1.9 | 430 (≈ 158 µg/mL) |
| CNC(=O)N1CC[C@](C)(N2CCc3c(-c4cnc(N)nc4)nc(N4CCOCC4)nc32)C1 | 110 | 410 | 73 | 0.084 | 24 | 0.72 | 1.7 | < 11 | 13 | 460 (≈ 202 µg/mL) |
| CNC(=O)N1CC[C@H](N2CCc3c(-c4cnc(N)nc4)nc(N4CCOCC4)nc32)C1 |  |  |  | 0.58 | 24 | 3.7 | 1.3 | < 8 | 6.1 | 390 (≈ 166 µg/mL) |
| CC(C)(C)OC(=O)N1CC[C@](C)(Nc2cc(-c3cnc(N)nc3)nc(N3CCOCC3)n2)C1 | 460 | 5000 | 110 |  | 68 | 5.1 | 3.8 | 110 | 11 | 270 (≈ 123 µg/mL) |
| COC(=O)N1CC[C@H](N2CCc3c(-c4cnc(N)nc4)nc(N4CCOCC4)nc32)C1 |  |  |  |  | 36 | 9.6 | 1.9 | < 8 | 20 | 56 (≈ 23.9 µg/mL) |
| COC(=O)N1CC[C@](CO)(Nc2cc(-c3cnc(N)nc3)nc(N3CCOCC3)n2)C1 | 2300 | 1800 | 91 |  | 1.7 | < 0.28 | 1.5 | 13 | 1 | 19 (≈ 8.18 µg/mL) |
| CS(=O)(=O)N1CC[C@](CO)(Nc2cc(-c3cnc(N)nc3)nc(N3CCOCC3)n2)C1 | > 10000 | > 10000 | 1300 |  | 11 | < 0.28 | 0.79 | < 8 | 0.22 |  |
| Nc1ncc(-c2cc(N[C@@]3(CO)CCN(C(=O)OCC(F)F)C3)nc(N3CCOCC3)n2)cn1 | 1000 | 1900 | 52 |  | 4 | < 0.28 | 1.7 | 17 | 3.9 | 9.9 (≈ 4.76 µg/mL) |
| CS(=O)(=O)N1CC[C@H](N2CCc3c(-c4cnc(N)nc4)nc(N4CCOCC4)nc32)C1 |  |  |  | 0.15 | 16 | 4.5 | 1.3 | < 8 | 18 | 61 (≈ 27.2 µg/mL) |
